The source of these data is paper PMC6300878, “In vitro antiplasmodial activity, pharmacokinetic profiles and interference in isoprenoid pathway of 2-aniline-3-hydroxy-1.4-naphthoquinone derivatives” (Malaria Journal, 2018).

The conditions of series [1]: solution with a maximum of 1% DMSO.
For another series, the system named is Plasmodium berghei. Details: method as in PMID 23850202. Conditions: murine Plasmodium berghei model; cited from earlier work.
Series [2] deals with menaquinone (MQ) biosynthesis.
Method: (§1) A flask was kept untreated and is considered the positive control. After 36 h, the culture was labeled with [1-(n)-^3H]GGPP (3.125 µCi/ml) in normal RPMI 1640 medium [32] during the last 16 h. The schizonts were purified by magnetic column (MACS Separation Columns “CS”, Miltenyi Biotec) [33]. The parasitaemia was estimated by microscopic examination of Giemsa-stained smears and the volume was adjusted of purified culture, according to the control, so that equal numbers of treated and untreated parasites were applied. After metabolic labelling and purification, lyophilized schizonts were used for extraction of MQ and TC. The final extract was injected into the HPLC-RT [34].
(§2) The molecules of MQ and TC were purified by an isocratic system with mobile phase methanol: ethanol (50:50 v/v), flow 0.5 ml/min and detection performed by UV absorption spectrum at a wavelength equal to 270 nm. The mobile phase was filtered on a PTFE (solvent A) and NYLON (solvent B) membrane of 0.20 µM. Radioactive fractions were dried by evaporation at 24 °C and resuspended in scintillation fluid. Quantification of the radioactivity (c.p.m.) was performed on the device Beckman 5000 β-radiation scintillation counter (Beckman, CA, USA) [34].
(§3) The IC50 was estimated by linear interpolation as compared to the drug-free controls, using the software GraphPad PRISM software. […]
For series [3], the system named is tocopherol (TC) biosynthesis.
Method: as §1, §2, §3
The conditions of series [4]: cited from earlier work.

Turning to `O=C1C(O)=C(Nc2ccccc2)C(=O)c2ccccc21` [4a], the Solubility result in series [1] is listed as “soluble”. Moreover, the “Antiplasmodial activity in vivo” value in the series with Plasmodium berghei is on record as “interesting antiplasmodial activity”.
As for `COc1ccc(NC2=C(O)C(=O)c3ccccc3C2=O)cc1` [4c], the inhibition is 58.1% in series [2] and 49.6% in series [3]. The Solubility result in series [1] was “soluble”. In addition, the “Antiplasmodial activity in vivo” value with Plasmodium berghei is “interesting antiplasmodial activity”.
For the compound `O=C1C(O)=C([C@H]2CC[C@H](c3ccc(Cl)cc3)CC2)C(=O)c2ccccc21` [atovaquone], in series [4], the “Binding to plasma proteins” value was “high binding to plasma proteins”, the Bioavailability result is reported as “low bioavailability” and the “Biopharmaceutics Classification (BCS) class” value is on record as “class II”.

A word on the inhibition: it is the drop in the measured response relative to a control, in per cent.
